Results: PMC6838674, “Apelin-36-[L28A] and Apelin-36-[L28C(30kDa-PEG)] peptides that improve diet induced obesity are G protein biased ligands at the apelin receptor” (Peptides, 2019)
Ends that are not written are not given here.

Tests used:
apelin receptor [1] = tested on: apelin receptor; parameters: method as in earlier work; conditions: ref 20 (Galon-Tilleman et al.), cited from earlier work
apelin receptor [2] = molecular target: T1, apelin receptor (Homo sapiens, UniProt P35414); experiment: Inhibition of forskolin-induced cAMP accumulation assay (DiscoverX); format: cell-based; parameters: host or cells: CHO-K1; conditions: for cAMP Assay Fold change: fold change in potency relative to apelin-36; for cAMP Assay RE (relative effectiveness) / cAMP Assay ΔlogR: operational model, compared to apelin-36
T1 sequence (P35414 1-380): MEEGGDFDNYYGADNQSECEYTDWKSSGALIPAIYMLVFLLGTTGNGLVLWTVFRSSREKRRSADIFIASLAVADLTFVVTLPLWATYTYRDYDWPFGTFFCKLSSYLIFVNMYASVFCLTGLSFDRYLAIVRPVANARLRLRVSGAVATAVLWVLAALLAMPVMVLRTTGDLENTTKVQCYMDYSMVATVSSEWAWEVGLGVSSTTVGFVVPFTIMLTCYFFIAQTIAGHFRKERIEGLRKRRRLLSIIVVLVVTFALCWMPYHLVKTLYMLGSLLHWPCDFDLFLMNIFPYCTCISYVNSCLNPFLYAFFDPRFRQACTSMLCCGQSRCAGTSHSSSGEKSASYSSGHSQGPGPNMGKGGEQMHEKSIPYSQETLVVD
Experimental: Cell-based cAMP assay were performed as previously described. Briefly, Chinese Hamster Ovary cells (CHO-K1) cells artificially expressing the human apelin receptor were seeded in Cell Plating media into 96-well plates and incubated for 24 h at 37 °C in 5% CO2. […] Cells were subsequently incubated with cAMP Detection Reagent comprising cAMP Lysis Buffer, Substrate Reagent 1, Substrate Reagent 2 and cAMP Solution D for 1 h at room temperature followed by 3 h incubation with cAMP Reagent A at room temperature and chemiluminescence reading (LumiLITE™ Microplate Reader, DiscoverX). Responses were fitted to a 4-parameter logistic equation in GraphPad Prism 7 (La Jolla, CA, USA) and values of potency, pD2 (-log10 EC50, where EC50 is the concentration producing half maximal response) determined. Data were expressed as percentage inhibition of forskolin-stimulated cAMP production.
(§1) Data were expressed as mean ± SEM. Experiments were performed in triplicates or duplicates and n-values were expressed as number of independent experiments. Potencies of analogues in cell-based assays were compared to native apelin-36 using a one-way ANOVA with Dunnett’s posthoc test in GraphPad Prism 7. A P value < 0.05 was considered statistically significant. Binding affinities in both species were compared using Student’s t-test in Graphpad Prism as described above. Bias calculations were performed as previously described using the operational model for bias, to obtain values for relative effectiveness of the apelin-36 synthetic analogues compared to apelin-36 within each cell-based assay. Bias factors were calculated to compare the relative activities of the analogues between the different pathways – β-arrestin (G protein independent) and cAMP (G protein dependent).

apelin receptor [3] = molecular target: T1, apelin receptor; experiment: β-Arrestin recruitment assay (DiscoverX AGTRL1); format: cell-based; parameters: host or cells: CHO-K1; conditions: for β-Arrestin Assay Fold change: fold change in potency relative to apelin-36; for β-Arrestin Assay RE (relative effectiveness) / β-Arrestin Assay ΔlogR: operational model, compared to apelin-36; for β-Arrestin Assay ΔlogR / β-Arrestin Assay pD2±SEM / EC50: n = 3-4 independent experiments; for β-Arrestin Assay pD2±SEM / EC50: CHO-K1 cells expressing human apelin receptor, 90 min, 37 °C, mean ± SEM, SEM; for EC50: read-out: β-Arrestin Assay pD2±SEM (converted)
Experimental: Experiments were performed using a β-arrestin GPCR Assay (AGTRL1) (DiscoverX, Lot No.: 16L0902) according to methods previously described. CHO-K1 cells artificially expressing the human apelin receptor were seeded in Cell Plating media into 96-well plates and incubated for 48 h at 37 °C in 5% CO2. […] Negative controls were defined with equal volumes of drug solvent (water). The resulting chemiluminescent signal was measured using a LumiLITE™ Microplate Reader (DiscoverX, Fremont, CA). Responses, measured in relative light units, were fitted with a 4-parameter logistic equation in GraphPad Prism 7 (La Jolla, CA, USA) and values of pD2 and maximum response (EMax) were calculated for each compound.
as §1

apelin receptor [4] = molecular target: T1, apelin receptor; experiment: Bias analysis, cAMP vs β-arrestin (operational model for bias); format: cell-based; parameters: host or cells: CHO-K1; conditions: for cAMP vs β-arrestin Assay Bias factor: G protein (cAMP) over β-arrestin; for cAMP vs β-arrestin Assay Bias factor / cAMP vs β-arrestin Assay ΔΔlogR ± SEM: reference ligand apelin-36; for cAMP vs β-arrestin Assay ΔΔlogR ± SEM: difference between ΔlogR in cAMP and β-arrestin pathways
Experimental: as §1, with “A P value < 0.05 was considered statistically significant.” left out, “Bias calculations were performed as previously described using the operational model for bias, to obtain values for relative effectiveness of the apelin-36 synthetic analogues compared to apelin-36 within each cell-based assay.” left out

apelin receptor [5] = molecular target: T2, apelin receptor (Rattus norvegicus, UniProt Q9JHG3); experiment: Radioligand competition binding, rat heart homogenate; conditions: [125I]apelin-13 0.1 nM, 90 min, competitor 50 pM-100 μM, mean ± SEM, n = 3 replicates per concentration
T2 construct: experiments using native rat and human receptor; from tissue; host or cells: pooled hearts of Sprague Dawley rats
T2 sequence (Q9JHG3 1-377): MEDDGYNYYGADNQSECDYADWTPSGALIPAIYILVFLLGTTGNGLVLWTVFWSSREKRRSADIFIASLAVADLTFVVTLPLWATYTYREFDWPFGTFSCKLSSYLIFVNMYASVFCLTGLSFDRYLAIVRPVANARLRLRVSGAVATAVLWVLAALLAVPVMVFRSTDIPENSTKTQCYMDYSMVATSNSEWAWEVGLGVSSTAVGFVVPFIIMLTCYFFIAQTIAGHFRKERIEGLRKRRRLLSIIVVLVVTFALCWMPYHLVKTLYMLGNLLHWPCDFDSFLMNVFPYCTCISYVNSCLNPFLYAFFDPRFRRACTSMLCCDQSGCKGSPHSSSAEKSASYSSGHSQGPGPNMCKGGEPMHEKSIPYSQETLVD
Source text: Samples of human left ventricle were obtained with informed consent and ethical approval (05/Q104/142) via the Papworth Hospital Research Tissue Bank (08/H0304/56) from the explanted hearts of five dilated cardiomyopathy patients (4 males and 1 female, aged 38–55 years) undergoing transplantation. Studies conformed to the principles outlined in the declaration of Helsinki. All animal research was regulated under the Animals (Scientific Procedures) Act 1986 Amendment Regulations 2012 following ethical review by the University of Cambridge Animal Welfare and Ethical Review Body (AWERB). Adult female and male Sprague Dawley rats (n = 14; aged 7–10 weeks) were sacrificed using overdose of CO2 and cervical dislocation before heart tissue was removed and frozen on dry ice. […] Final pellets were then resuspended in 10 ml HEPES buffer (50 mM HEPES, pH 7.4) and protein concentration determined. […]
(§2) Competition binding experiments were performed using pooled human homogenised left ventricle (HLV, 1.5 mg/ml) and pooled rat heart homogenates (1.5 mg/ml) as previously described. […] The samples were then re-centrifuged to collect protein pellets before bound radioactivity in these pellets were counted using Packard Cobra II Auto Gamma Counter (Packard). Data were analysed with Graphpad Prism 7 (Graphpad Software, Inc. La Jolla, CA), using the One-site Fit Ki equation.

apelin receptor [6] = molecular target: T1, apelin receptor; experiment: Radioligand competition binding, human left ventricle homogenate; parameters: experiments using native rat and human receptor; from tissue; host or cells: human left ventricle from explanted hearts of dilated cardiomyopathy patients; conditions: [125I]apelin-13 0.1 nM, 90 min, competitor 50 pM-100 μM, mean ± SEM, n = 3 replicates per concentration; for Ki: human heart homogenate 1.5 mg/ml
Source text: Samples of human left ventricle were obtained with informed consent and ethical approval (05/Q104/142) via the Papworth Hospital Research Tissue Bank (08/H0304/56) from the explanted hearts of five dilated cardiomyopathy patients (4 males and 1 female, aged 38–55 years) undergoing transplantation. Studies conformed to the principles outlined in the declaration of Helsinki. All animal research was regulated under the Animals (Scientific Procedures) Act 1986 Amendment Regulations 2012 following ethical review by the University of Cambridge Animal Welfare and Ethical Review Body (AWERB). Adult female and male Sprague Dawley rats (n = 14; aged 7–10 weeks) were sacrificed using overdose of CO2 and cervical dislocation before heart tissue was removed and frozen on dry ice. Hearts were pooled and 2 g tissue transferred into a centrifuge tube (50 ml) containing 20 ml homogenisation buffer (50 mM Tris, 5 mM MgCl2, 5 mM EDTA, 1 mM EGTA at pH 7.4 with protease inhibitor cocktail) on ice. The tissue was homogenised on ice using a polytron probe with 2–3 × 20 s bursts and centrifuged at 3000 rpm for 2 min at 4 °C. The supernatant was further centrifuged at 18,500 rpm for 30 min at 4 °C. The resulting pellet was resuspended in 5 ml homogenisation buffer containing protease inhibitor cocktail and centrifuged at 18,500 rpm for 30 min at 4 °C twice. Final pellets were then resuspended in 10 ml HEPES buffer (50 mM HEPES, pH 7.4) and protein concentration determined. Samples were stored at −70 °C until required.
as §2, with “described. […] (50 pM-100 μM).” for “described.”

[7] = molecular target: T3, apelin receptor (Rattus norvegicus), Q9JHG3; experiment: radioligand competition binding, heart homogenate; conditions: modification not given
T3 chain: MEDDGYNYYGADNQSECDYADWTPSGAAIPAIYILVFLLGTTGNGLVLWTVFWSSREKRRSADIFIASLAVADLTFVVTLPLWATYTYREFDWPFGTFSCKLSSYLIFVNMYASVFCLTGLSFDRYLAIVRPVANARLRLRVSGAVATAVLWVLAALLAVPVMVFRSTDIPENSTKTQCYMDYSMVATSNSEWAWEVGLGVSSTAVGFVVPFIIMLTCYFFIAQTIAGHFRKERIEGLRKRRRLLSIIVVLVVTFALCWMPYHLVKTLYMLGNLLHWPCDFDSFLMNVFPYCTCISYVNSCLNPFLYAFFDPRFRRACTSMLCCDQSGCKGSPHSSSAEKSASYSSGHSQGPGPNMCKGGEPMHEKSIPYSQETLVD

[8] = n = 3-4 independent experiments
[9] = CHO-K1 cells expressing human apelin receptor, 15 μM forskolin, 30 min, 37 °C, n = 3-4 independent experiments, read-out: cAMP Assay EC50
[10] = CHO-K1 cells expressing human apelin receptor, 15 μM forskolin, 30 min, 37 °C, mean ± SEM, n = 3-4 independent experiments, SEM, read-out: cAMP Assay pD2±SEM (converted)

## Apelin-13 [reference compound]
Apelin receptor [1]; comment in Table 1
  agonist character at apelin receptor (comment): QRPRLSHKGPMPF (full agonist)

## Apelin-36-[L28C(30kDa-PEG)]: apelin-36 with leucine-28 to cysteine substitution, cysteine-28 PEGylated (30kDa)
Apelin receptor [1]; β-arrestin activation
  fold less potent / less active at apelin receptor compared to apelin-36: 10,000 fold
Apelin receptor [2]
  cAMP Assay Fold change: 104 fold
  cAMP Assay RE (relative effectiveness): 0.01
Apelin receptor [2]; [8]
  cAMP Assay ΔlogR: −1.95 ± 0.31
Apelin receptor [3]; listed as Apelin-36-[L28C (30kDa-PEG)]
  β-Arrestin Assay Fold change: 1324 fold
Apelin receptor [3]; listed as apelin-36-[L28C(30kDa-PEG)]
  β-Arrestin Assay Fold change: 1400 fold
Apelin receptor [3]
  β-Arrestin Assay RE (relative effectiveness): 0.0002
  β-Arrestin Assay ΔlogR: −3.71 ± 0.12
Apelin receptor [4]; CHO-K1 cells expressing human apelin receptor
  fold more potent in the cAMP assay compared to the β-arrestin assay: ~10 fold
Apelin receptor [4]
  cAMP vs β-arrestin Assay Bias factor: 58
  cAMP vs β-arrestin Assay ΔΔlogR ± SEM: 1.76 ± 0.33

## Apelin-36-[L28C(30kDa-PEG)]: apelin-36 with leucine-28 to cysteine substitution, cysteine-28 PEGylated (30kDa) (LVQPRGSRNGPGPWQGGRRKFRRQRPRCSHKGPMPF)
Apelin receptor [5]
  pKi: 8.06 ± 0.37
Apelin receptor [2]; [9]
  EC50: 95.3 nM
Apelin receptor [3]
  β-Arrestin Assay pD2±SEM: 6.05 ± 0.06
Apelin receptor [6]; human heart homogenate […]
  pKi: 8.00 ± 0.05

## LVQPRGSRNGPGAWQGGRRKFRRQRPRASHKGPMPF [Apelin-36-[A13 A28]]
Apelin receptor [2]; [10]
  EC50: 7.59 nM
Apelin receptor [3]
  EC50: 151 nM

## LVQPRGSRNGPGPWQGGRRKFRRQRPRASHKGPMPF [Apelin-36-[L28A]]
Apelin receptor [2]; [9]
  EC50: 13.1 nM
Apelin receptor [3]
  EC50: 37.2 nM
Apelin receptor [6]
  Ki: 3.02 nM

## LVQPRGSRNGPGPWQGGRRKFRRQRPRLSHKGPMPA [Apelin-36-[F36A]]
Apelin receptor [2]; [10]
  EC50: 1.26 nM
Apelin receptor [3]
  EC50: 8.13 nM

## LVQPRGSRNGPGPWQGGRRKFRRQRPRLSHKGPMPF [Apelin-36]
Apelin receptor [5]
  Ki: 0.0589 nM
Apelin receptor [2]; [10]
  EC50: 0.912 nM
Apelin receptor [3]
  EC50: 0.676 nM
Apelin receptor [6]
  Ki: 0.0525 nM

## [40kDa-PEG]-Apelin-36: N-terminal PEGylated (40kDa) apelin-36
Apelin receptor [2]
  cAMP Assay Fold change: 2 fold
  cAMP Assay RE (relative effectiveness): 1.20
Apelin receptor [2]; [8]
  cAMP Assay ΔlogR: 0.08 ± 0.40
Apelin receptor [3]
  β-Arrestin Assay Fold change: 3 fold
  β-Arrestin Assay RE (relative effectiveness): 0.26
  β-Arrestin Assay ΔlogR: −0.59 ± 0.16
Apelin receptor [4]
  cAMP vs β-arrestin Assay Bias factor: 5
  cAMP vs β-arrestin Assay ΔΔlogR ± SEM: 0.67 ± 0.43

## [40kDa-PEG]-Apelin-36: N-terminal PEGylated (40kDa) apelin-36 (LVQPRGSRNGPGPWQGGRRKFRRQRPRLSHKGPMPF)
Apelin receptor [2]; CHO-K1 cells expressing human apelin receptor, 15 μM forskolin, 30 min, 37 °C, mean ± SEM, n = 3-4 independent experiments, SEM
  cAMP Assay pD2±SEM: 8.69 ± 0.22
Apelin receptor [3]
  β-Arrestin Assay pD2±SEM: 8.71 ± 0.15

## LVQPRGSRNGPGPWQGGRRKFRRQRPRASHKGPMPF (not fully specified) [apelin-36-[L28A]]
[7]
  Ki: 0.309 nM
